Here are results for one sequence from PMC10065799, “High-throughput profiling of sequence recognition by tyrosine kinases and SH2 domains using bacterial peptide display” (eLife, 2023).

The target of this experiment is T1, c-Abl kinase domain (Mus musculus, UniProt P00520).
T1 sequence (P00520 242-493 limits assumed): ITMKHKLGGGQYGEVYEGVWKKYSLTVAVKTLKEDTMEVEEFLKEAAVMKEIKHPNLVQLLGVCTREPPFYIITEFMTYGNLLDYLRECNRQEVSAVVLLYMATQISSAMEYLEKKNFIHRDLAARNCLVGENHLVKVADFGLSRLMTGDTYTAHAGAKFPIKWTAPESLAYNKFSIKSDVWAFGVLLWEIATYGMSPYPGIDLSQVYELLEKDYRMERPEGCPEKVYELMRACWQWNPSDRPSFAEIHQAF
Put plainly: pTyr-Var library bacterial peptide display kinase screen (enrichment scores). The following applies: variant versus reference peptide. Type of experiment: biochemical.

For the sequence GMAHNYRNRSQ [AASS_Y188_S191R], the “c-Abl difference (mean log2 variant - mean log2 reference)” value came to 0.7958.
